Measured values reported in the supplement of paper PMC10307832.

Experiments:
Test in all cases: relative viability (nuclei count vs DMSO), 5 days (fraction); higher = more cells survive
[1] = compound: CN1CCC(CC1)OC2=CC(=C(C=C2)NC3=NC=C4C(=N3)N(C(=O)N4C)C5CCCC5)OC [AZ3146] + O=C(c1cc(Cc2n[nH]c(=O)c3ccccc23)ccc1F)N1CCN(C(=O)C2CC2)CC1 [Olaparib] (partner 8 µM)
Method in brief: (§1)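 Lung cancer cell lines were pin-tool dosed in 1536-well plates on the day after seeding, with either a lone drug or a fixed anchor-drug dose plus five library-drug doses (not always all listed) in √10 steps. Nuclei were counted on 4× images after 5 days. Relative viability is the ratio of treated-well to vehicle-well nuclei counts, with each value a median of duplicate plates.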

[2] = compound: CN1CCC(CC1)OC2=CC(=C(C=C2)NC3=NC=C4C(=N3)N(C(=O)N4C)C5CCCC5)OC [AZ3146] + C[C@@H](Oc1cc(-c2cnn(C3CCNCC3)c2)cnc1N)c1c(Cl)ccc(F)c1Cl [Crizotinib] (partner 1 µM)
Method in brief: as §1

[3] = compound: CCOC(=O)CCNc1cc(N2CCc3ccccc3CC2)nc(-c2ccccn2)n1 [GSK-J4] + C[C@]1(O)C[C@@H](c2nc(-c3ccc4ccc(-c5ccccc5)nc4c3)c3c(N)nccn32)C1 [Linsitinib] (partner 1 µM)
Method in brief: as §1

[4] = compound: CN1CCC(CC1)OC2=CC(=C(C=C2)NC3=NC=C4C(=N3)N(C(=O)N4C)C5CCCC5)OC [AZ3146] + Nc1nc2[nH]cc(CCc3ccc(C(=O)N[C@@H](CCC(=O)O)C(=O)O)cc3)c2c(=O)[nH]1 [Pemetrexed] (partner 0.2 µM)
Method in brief: as §1

| Cell Line | relative viability ([1]; first compound 0.08 µM) | relative viability ([1]; first compound 0.253 µM) | relative viability ([1]; first compound 0.8 µM) | relative viability ([1]; first compound 2.53 µM) | relative viability ([1]; first compound 8 µM) | relative viability ([2]; first compound 0.08 µM) | relative viability ([2]; first compound 0.253 µM) | relative viability ([2]; first compound 0.8 µM) | relative viability ([2]; first compound 2.53 µM) | relative viability ([2]; first compound 8 µM) | relative viability ([3]; first compound 0.5 µM) | relative viability ([3]; first compound 1.581 µM) | relative viability ([3]; first compound 5 µM) | relative viability ([3]; first compound 15.81 µM) | relative viability ([3]; first compound 50 µM) | relative viability ([4]; first compound 0.08 µM) | relative viability ([4]; first compound 0.253 µM) | relative viability ([4]; first compound 0.8 µM) | relative viability ([4]; first compound 2.53 µM) | relative viability ([4]; first compound 8 µM) |
| --- | --- | --- | --- | --- | --- | --- | --- | --- | --- | --- | --- | --- | --- | --- | --- | --- | --- | --- | --- | --- |
| NCI-H2009 | 0.642 | 0.662 | 0.742 | 0.649 | 0.604 | 0.978 | 1.12 | 1.04 | 0.87 | 0.885 | 1.19 | 0.873 | 0.983 | 1.17 | 0.947 | 1.05 | 0.996 | 1.04 | 0.989 | 1.03 |
| COR-L 105 | 0.654 | 0.717 | 0.503 | 0.696 | 0.648 | 0.756 | 0.745 | 0.508 | 0.518 | 0.332 | 0.985 | 0.572 | 0.91 | 1.06 | 0.99 | 1.19 | 1.22 | 0.962 | 0.645 | 0.799 |
| HCC-827 | 0.624 | 0.612 | 0.625 | 0.568 | 0.785 | 0.943 | 0.859 | 1.04 | 0.913 | 0.911 | 0.932 | 0.955 | 0.889 | 0.902 | 0.87 | 0.291 | 0.244 | 0.252 | 0.269 | 0.248 |
| EMC-BAC-2 | 0.407 | 0.522 | 0.5 | 0.531 | 0.432 | 0.679 | 0.696 | 0.884 | 0.763 | 0.731 | 0.781 | 0.728 | 0.83 | 0.715 | 0.794 | 0.379 | 0.442 | 0.433 | 0.466 | 0.411 |
| NCI-H1703 | 0.424 | 0.383 | 0.517 | 0.346 | 0.402 | 0.447 | 0.59 | 0.384 | 0.365 | 0.241 | 0.636 | 0.276 | 0.336 | 0.364 | 0.761 |  |  |  |  |  |
| NCI-H2170 | 0.578 | 0.63 | 0.542 | 0.614 | 0.623 | 1.04 | 1.07 | 1.22 | 1.11 | 1.03 |  |  |  |  |  | 0.269 | 0.248 | 0.26 | 0.268 | 0.281 |
| NCI-H1755 | 0.867 | 0.892 | 0.89 | 0.945 | 0.923 | 0.868 | 0.888 | 0.855 | 0.928 | 0.816 | 0.958 | 0.561 | 0.962 | 0.858 | 0.959 | 0.666 | 0.532 | 0.463 | 0.509 | 0.496 |
| ChaGo-K-1 | 0.352 | 0.436 | 0.361 | 0.421 | 0.357 | 1 | 1.26 | 0.951 | 0.593 | 0.328 |  |  |  |  |  | 0.562 | 0.248 | 0.254 | 0.258 | 0.248 |
| EKVX | 0.798 | 0.828 | 0.811 | 1.07 | 0.798 | 0.957 | 1.12 | 1.06 | 1.1 | 0.365 | 0.928 | 0.832 | 1.16 | 0.836 | 0.902 | 0.441 | 0.424 | 0.365 | 0.389 | 0.422 |
| HCC-78 |  | 0.863 | 0.765 | 0.767 | 0.798 |  | 0.326 | 0.329 | 0.387 | 0.361 | 0.44 | 0.499 | 0.701 |  | 0.484 |  | 1 | 0.911 | 0.91 | 0.895 |
| A-427 | 0.689 | 0.813 | 0.758 | 0.794 | 0.652 | 0.877 | 0.927 | 0.869 | 0.804 | 0.444 | 1.07 |  | 1.14 | 1.11 | 0.94 | 0.898 | 0.923 | 0.976 | 0.926 | 0.766 |
| NCI-H3122 | 0.582 | 0.611 | 0.543 | 0.615 | 0.645 | 0.294 | 0.299 | 0.274 | 0.305 | 0.27 | 0.939 | 1.04 | 1.04 | 0.998 | 0.98 | 0.197 | 0.191 | 0.203 | 0.2 | 0.185 |
| NCI-H1563 |  |  |  |  |  | 0.874 | 0.896 | 0.954 | 0.802 | 0.777 | 1.15 | 1.2 | 1.22 | 1.18 | 1.24 | 0.673 | 0.645 | 0.717 | 0.797 | 0.825 |
| SK-MES-1 | 0.779 | 0.759 | 0.718 | 0.784 | 0.654 | 0.936 | 1.03 | 0.97 | 1.12 | 1.05 | 0.994 | 0.975 | 0.827 | 0.993 | 0.994 | 1.02 | 0.976 | 0.965 | 0.997 | 0.792 |
| SW 1573 | 0.569 | 0.507 | 0.575 | 0.374 | 0.227 | 0.758 | 0.843 | 0.892 | 0.891 | 0.531 | 0.81 | 0.755 | 0.802 | 0.703 | 0.595 | 0.815 | 0.844 | 0.861 | 0.82 | 0.228 |
